# Assay results reported in patent US8685976B2, “Cell adhesion promoting agent and method of promoting cell adhesion” (Kyoto University, priority 2008, dated 2014).
# “Also recorded” adds a separate entry of the source. Read-outs that look alike come from different tables or passages of the source.
# Legend:
# Jurkat cells [1] = assay: Cell adhesion assay by addition, Jurkat cells; assay type: cell-based, human; settings: Jurkat cells; for cell-adhesion promoting activity of adhesamine derivatives: FIG. 6
# Protocol: 1 μL each of an aqueous solution of adhesamine (1), Type I collagen, poly-L-lysine hydrochloride, poly-L-ornithine hydrobromide, and fibronectin at a concentration of 50, 500, and 5000 μg/ml, was added to 96-well plate. 100 μL of HepG2 suspension (4×10^5 cells/mL) was added to each well. After 3-hour incubation at 37° C., non-adherent cells were removed by washing each well with PBS three times, and the attached cells were counted with a Neubauer counting chamber (Digital Bio). For Jurkat cells, 100 μL of cell suspension was added to each well at a density of 1×10^6 cells/ml. After 5-hour incubation at 37° C., non-adhered cells were removed by washing each well with PBS twice, and the attached cells were counted with a Neubauer counting chamber (Digital Bio). To calculate adhesion rates, firstly seeded cell numbers were assigned a value of 100%. As control tests, the same tests were conducted using wells supplied with only 1 μL of DMSO. Each assay was conducted in triplicate, and the means and standard derivations were calculated.
# The comparison between adhesamine and its derivatives regarding cell adhesion promotion activity was conducted using Jurkat cells by way of reagent addition assay. 1 μL each of DMSO solutions of the compounds having concentrations of 60, 600, and 6000 μM were added to 96-well plates. The wells were supplied with 100 μL each of Jurkat cell suspensions (1×10^6 cells/mL). After 5-hour incubation at 37° C., non-adhered cells were removed by washing each well with PBS twice, and the attached cells were counted with a Neubauer counting chamber (Digital Bio). To calculate adhesion rates, firstly seeded cell numbers were assigned a value of 100%. As control tests, the same tests were conducted using well plates supplied with only 1 μL of DMSO. Each assay was conducted in triplicate, and the means and standard derivations were calculated.
# However, since HepG2 cells have an intrinsic propensity to adhere to plastic tissue-culture plates, a test was conducted to determine whether the same effect was also obtained in the Jurkat cell line and human T-lymphocytes that are floating cells. Remarkably, 30% and 60% of the Jurkat cells attached to a culture plate in the presence of 6 and 60 μM of adhesamine, respectively (FIG. 1D). Removal of adhesamine by washing the plate twice with PBS detached the cells. 93% of Jurkat cells were released from the surface of a culture plate 24 hour after washing (FIG. 2). […] Simply adding adhesamine to the medium promoted adhesion of Jurkat cells onto culture plates, but not to each other.
# HepG2 cells [2] = assay: Confocal imaging of fluorescent compounds; assay type: cell-based; settings: for localization of the fluorescent compound: HepG2, 6 μM, 3 hours
# Protocol: HepG2 cells were incubated with Compound 4 (6 μM, A and C) or Compound 5 (6 μM, B and D) for 3 hours after seeding.
# (§1) In (A) and (B), Jurkat cells (A) or HepG2 cells (B) were pretreated with 0.02 units/mL of heparinase, heparitinase I, and heparitinase II, or 0.1 units/mL of protease-free chondroitinase ABC in a serum-free culture medium for 1 hour at 37° C. before evaluating cell adhesion. The treated cells were seeded onto adhesamine-added or fibronectin-coated plastic wells. The attached cells were counted at 5 hours after seeding. The concentrations of adhesamine and fibronectin were 6 μM and 5 μg/mL, respectively. Each point represents the means±SD. (C) and (D) show localization of Compound 4 in HepG2 cells treated with heparinase/heparitinase I/heparitinase II (C) or chondroitinase ABC (D).
# HepG2 cell suspension (100 μL) were seeded on a 96-well plate (Greiner bio-one) at a density of 2×10^5 cells/mL, and the cells were incubated with Compounds 4 and 5 for 3 hours at 37° C., at a concentration of 6 μM. After incubation, medium exchange was performed, and the cells were then subjected to fluorescent microscopic observation. Microscopic images of the cells were captured by a Yokogawa CSU22 confocal fluorescence microscope with 405 nm laser excitation.
# Jurkat cells [3] = assay: Cytoskeletal disruption, cell adhesion; assay type: cell-based, human; settings: for effect on adhesamine-mediated cell adhesion: adhesamine 6 μM, cytochalasin B 0-100 μM or nocodazole 0-0.5 μM; for effect on fibronectin-mediated cell adhesion: fibronectin-coated plate; for effect on cell attachment induced by poly-L-lysine: poly-L-lysine-coated plate
# Protocol: Jurkat cells were adhered to plastic plates by adding adhesamine thereto in the presence of nocodazole (a tubulin inhibitor) or cytochalasin B (an actin inhibitor). Both nocodazole and cytochalasin inhibited adhesamine-induced cell adhesion, as observed in the cells adhered to a fibronectin-coated plate. […] The concentration of adhesamine was 6 μM. The fibronectin- or poly-L-lysine-coated plates were prepared by pretreating wells of 96-well plates with fibronectin or poly-L-lysine (1 ng/well).
# Jurkat cells (5×10^4) were cultured in 100 μL of RPMI, and incubated with cytochalasin B (0-100 μM) or nocodazole (0-0.5 μM) at 37° C. The treated cells were then assayed for their responses to adhesamine (6 μM). Their responses to fibronectin- or poly-L-lysine-coated plates were also evaluated. The coated plates were prepared by pretreating wells of 96-well plates with fibronectin or poly-L-lysine (1 ng/well).
# [4] = tested on: adhesamine (6 μM)-induced cell attachment of Jurkat cells; assay: Squelching assay; assay type: cell-based, human; settings: for IC50: adhesamine 6 μM, Jurkat cells
# Protocol: Adhesamine (1: 0.6 nmol) and each glycosaminoglycan (GAG) (heparin, heparan sulfate, chondroitin sulfate, keratan sulfate, hyaluronic acid, and heparin oligosaccharides) ranging from 0.006 to 12 nmol were stirred in 10 μL of 50 mM phosphate buffer (pH 6.0) containing 100 mM NaCl and 1% DMSO with a vortex mixer at room temperature for 30 min. Thereafter, these mixtures were transferred to 96-well plates, and 90 μL of Jurkat cell suspension (1×10^5 cells/mL) was added to each well. After 5-hour incubation at 37° C., non-adherent cells were removed by washing each well with PBS twice, and the attached cells were counted with a Neubauer counting chamber (Digital Bio). To calculate the inhibition rates, the number of attached cells in the wells supplied only with 1% DMSO or GAG of each concentration was subtracted from the number of cells in which the cell adhesions were observed after addition of the samples. The inhibition rate is expressed as follows.
# wherein AC+(−)GAGs, +(−)adhesamine expresses the number of adhered cells in the presence (absence) of GAGs and adhesamine.
# IC50 values are defined as the concentrations of GAGs required for 50% inhibition of the adhesamine (6 μM)-induced cell attachment. The results of the squelching assays were plotted as percentage of inhibition vs. log (GAG), and IC50 values were determined from curve fits of multiple independent experiments.
# [5] = tested on: extracellular signal-regulated kinase (ERK); assay: Western blotting, ERK activation; assay type: cell-based, human; settings: Jurkat, excess amounts of heparin
# Protocol: (§2) Jurkat cells were treated with adhesamine (6 μM) in a serum-poor culture medium (0.1% FBS) for the indicated periods of time. The treated cell lysates were Western blotted with antibodies against FAK phospho-tyrosine^397 (pFAK), FAK, ERK1/2 phospho-threonine^202/tyrosine^204 (pERK) or ERK. In (B), Jurkat cells were incubated for 5 hours with varied concentrations of adhesamine or poly-L-lysine. The cell lysates were Western blotted with antibodies against FAK phospho-tyrosine^397 or FAK. […] The concentration of adhesamine (1) was 6 μM.
# Jurkat cells were maintained in an RPMI medium containing 10% FBS. 5-6 million Jurkat cells were dispensed to a well of a 6-well plate in a final volume of 2 mL, and then incubated at 37° C. for 0-5 hours in the presence of adhesamine or poly-L-lysine. Non-adherent cells were removed and pelleted, and the remaining adherent cells were lysed in a 125 mM Tris-HCl buffer (pH 6.8) containing 4% SDS, 10% glycerol, 0.006% bromophenol blue, and 1.8% β-mercaptoethanol. The adherent cell homogenate was combined with pelleted nonadherent cells from the same well, and the combined sample was boiled for 5 minutes. The samples were separated by SDS-PAGE and electroblotted onto a nitrocellulose membrane. The membranes were blocked in 1% BSA and incubated with primary antibody, and then with horseradish peroxidase-conjugated secondary antibody. […]
# [6] = tested on: focal adhesion kinase (FAK); assay: Western blotting, FAK activation; assay type: cell-based, human; settings: Jurkat, adhesamine 6 μM, excess heparin or RGD peptide (100 μg/mL)
# Protocol: as §2
# Jurkat cells were maintained in an RPMI medium containing 10% FBS. 5-6 million Jurkat cells were dispensed to a well of a 6-well plate in a final volume of 2 mL, and then incubated at 37° C. for 0-5 hours in the presence of adhesamine or poly-L-lysine. Non-adherent cells were removed and pelleted, and the remaining adherent cells were lysed in a 125 mM Tris-HCl buffer (pH 6.8) containing 4% SDS, 10% glycerol, 0.006% bromophenol blue, and 1.8% β-mercaptoethanol. The adherent cell homogenate was combined with pelleted nonadherent cells from the same well, and the combined sample was boiled for 5 minutes. The samples were separated by SDS-PAGE and electroblotted onto a nitrocellulose membrane. The membranes were blocked in 1% BSA and incubated with primary antibody, and then with horseradish peroxidase-conjugated secondary antibody. The blots were developed using the enhanced chemiluminescence technique.
# Jurkat cells [7] = assay: Enzymatic treatment of cells, cell adhesion, Jurkat; assay type: cell-based, human; settings: heparinases 0.02 units/mL, chondroitinase ABC 0.1 units/mL
# Protocol: as §1
# Jurkat cells (5×10^4) were cultured in 100 μL of RPMI and treated with a combination of heparinase, heparitinase I, and heparitinase II (0.02 units/mL) or chondroitinase ABC (0.1 units/mL) for 30 min at room temperature. The ability of the treated cells to respond to adhesamine was evaluated by counting the cells that were attached to plastic wells of a 96-well plate in the presence of adhesamine (6 μM).
# HepG2 cells [8] = assay: Enzymatic treatment of cells, cell adhesion, HepG2; assay type: cell-based; settings: heparinases 0.02 units/mL, chondroitinase ABC 0.1 units/mL
# Protocol: as §1
# The effects of these GAG-degrading enzymes on the intact or adhesamine-enhanced attachment of HepG2 cells were examined. […] As observed in Jurkat cells, adhesamine-induced cell adhesion was canceled by heparan sulfate-degrading enzymes, but not by chondroitinase ABC (FIG. 9B).
# Jurkat cells [9] = assay: Microinjection of Alexa Fluor 594; assay type: cell-based, human; settings: 5 μg/mL reagent
# Protocol: The concentration of the reagents used was 5 μg/mL.
# The solutions of adhesamine (1), Type I collagen, poly-L-lysine hydrochloride, and fibronectin were prepared by diluting with PBS containing 1% (v/v) DMSO. 10 μL of each solution (1 mg/mL) was added to glass bottom culture dishes (35 mm uncoated dish). 2 mL of cell suspension in a culture medium was added to each well at a density of 2×10^5 cells/mL. After 14-hour incubation at 37° C., Alexa Fluor 594 (Molecular Probes, USA) at a concentration of 5 mg/mL was injected into Jurkat cells by using a CI-2000 automated cell injection system (Fujitsu, Japan). Success rates of the microinjection were evaluated by direct observation of the fluorescent cells through a fluorescent-microscopic window of the injection system. The data shown are means±SD for a minimum of three experiments. 20 cells were injected in each experiment.
# [10] = read-out: IC50 (GAGs, 50% inhibition of adhesamine-induced cell attachment)
compound,measurement,setting,value
"C1C[N+]2(CCN1)CC[N+]1(CCNCC1)CC2.[Br-].[Br-] [Compound 2, 3,12-diaza-6,9-diazoniadispiro-(5,2,5,2)-hexadecane dibromide, reference compound]",cell-adhesion promoting activity of adhesamine derivatives,Jurkat cells [1],completely eliminated the activity
CSc1nc(Cl)c(CO)c(N2CC[N+]3(CC2)CC[N+]2(CCN(c4nc(SC)nc(Cl)c4CO)CC2)CC3)n1 [Compound 3],cell-adhesion promoting activity of adhesamine derivatives,Jurkat cells [1],no impact on activity
CSc1nc(Cl)c(C=NNS(=O)(=O)c2cccc3c(N(C)C)cccc23)c(N2CC[N+]3(CC2)CC[N+]2(CCN(c4nc(SC)nc(Cl)c4C=NNS(=O)(=O)c4cccc5c(N(C)C)cccc45)CC2)CC3)n1 [Compound 4],localization of the fluorescent compound,HepG2 cells [2],on the cell surface
same,localization of the fluorescent probe,HepG2 cells [2]; HepG2 cells treated with chondroitinase,no impact on the cell-surface localization
same,localization of the fluorescent probe,HepG2 cells [2]; HepG2 cells treated with heparan sulfate-degrading enzymes,diffused from the cell surface
same,cell-adhesion promoting activity of adhesamine derivatives,Jurkat cells [1],maintained the cell-adhesion promoting activity
CN(C)c1cccc2c(S(=O)(=O)N3CC[N+]4(CC3)CC[N+]3(CCN(S(=O)(=O)c5cccc6c(N(C)C)cccc56)CC3)CC4)cccc12 [Compound 5],localization of the fluorescent compound,HepG2 cells [2],no clear localization
same,cell-adhesion promoting activity of adhesamine derivatives,Jurkat cells [1],little effect on cell adhesion
O=[N+]([O-])c1c(Cl)ncnc1N1CC[N+]2(CC1)CC[N+]1(CCN(c3ncnc(Cl)c3[N+](=O)[O-])CC1)CC2 [Compound 6],Jurkat cell adhesion rate (%) in 6 μM of Adhesamine,Jurkat cells [1],22 ± 3.2%
O=[N+]([O-])c1c(N2CC[N+]3(CC2)CC[N+]2(CCNCC2)CC3)ncnc1N1CC[N+]2(CC1)CC[N+]1(CCNCC1)CC2.[Cl-].[Cl-].[Cl-].[Cl-] [Compound 7],Jurkat cell adhesion rate (%) in 6 μM of Adhesamine,Jurkat cells [1],21 ± 1.3%
CSc1nc(Cl)c(C=O)c(N2CC[N+]3(CC2)CC[N+]2(CCN(c4ncnc(N5CC[N+]6(CC5)CC[N+]5(CCN(c7nc(SC)nc(Cl)c7C=O)CC5)CC6)c4[N+](=O)[O-])CC2)CC3)n1.[Cl-].[Cl-].[Cl-].[Cl-] [Compound 8],Jurkat cell adhesion rate (%) in 6 μM of Adhesamine,Jurkat cells [1],28 ± 4.1%
Clc1nc(Cl)nc(N2CC[N+]3(CC2)CC[N+]2(CCN(c4nc(Cl)nc(Cl)n4)CC2)CC3)n1 [Compound 9],Jurkat cell adhesion rate (%) in 6 μM of Adhesamine,Jurkat cells [1],35 ± 5.2%
C=C1[C@@H](C)[C@H]2[C@H](Cc3ccccc3)NC(=O)[C@]23OC(=O)/C=C/[C@H](O)CCC[C@@H](C)C/C=C/[C@H]3[C@@H]1O [cytochalasin B],effect on adhesamine-mediated cell adhesion,Jurkat cells [3],inhibited
same,effect on fibronectin-mediated cell adhesion,Jurkat cells [3],impaired
same,effect on cell attachment induced by poly-L-lysine,Jurkat cells [3],no detectable effects; also recorded: hardly inhibited
COC(=O)Nc1nc2ccc(C(=O)c3cccs3)cc2[nH]1 [nocodazole],effect on adhesamine-mediated cell adhesion,Jurkat cells [3],inhibited
same,effect on fibronectin-mediated cell adhesion,Jurkat cells [3],impaired
same,effect on cell attachment induced by poly-L-lysine,Jurkat cells [3],no detectable effects; also recorded: hardly inhibited
Heparan sulfate,IC50,[4]; [10],790 nM
Heparin [reference compound],effect on adhesamine-induced ERK activation,[5],blocked
same,effect on adhesamine-induced phosphorylation of FAK,[6],reduced
same,IC50,[4]; [10],270 nM
same,IC50,"[4]; read-out: IC50 (heparin oligosaccharides, 50% inhibition of adhesamine-induced cell attachment)",270 ± 50 nM
Hyaluronic acid,ability to squelch the activity of adhesamine,[4]; GAG added to the medium together with adhesamine,no detectable effect
same,IC50,[4]; [10],> 120000 nM
Keratan sulfate,IC50,[4]; [10],1030 nM
chondroitinase ABC,effect on adhesamine-induced cell attachment,Jurkat cells [7],no detectable effects
same,inhibition of intact attachment of HepG2 cells,HepG2 cells [8],7%
"fibronectin: fibronectin from bovine plasma, plate-coating reagent",microinjection success rates,Jurkat cells [9],up to 30%
